Test results taken from patent US11401270B2, “Alcoxyamino derivatives for treating pain and pain related conditions” (ESTEVE PHARMACEUTICALS, S.A., priority 2017, dated 2022).
Like-named read-outs stand apart in the source and are kept apart here.

How the values were obtained:
[1] = target: Human α2δ-1 subunit of Cav2.2 calcium channel (Homo sapiens (Human), UniProt P54289); assay: Binding Assay to Human α2δ-1 Subunit of Cav2.2 Calcium Channel; conditions: human α2δ-1 enriched membranes, 15 nM [3H]-Gabapentin, read-out: Ki(nM) alpha2delta Hum
In short: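 Radioligand filtration binding at the α2δ-1 subunit, test compound at five concentrations; nonspecific binding defined with 10 μM pregabalin. Incubated 60 min at 27 °C, stopped by GF/C filtration (0.5% PEI presoaked) with ice-cold 50 mM Tris-HCl pH 7.4 washes; bound radioactivity counted by scintillation.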

[2] = target: Human norepinephrine transporter (NET) (Homo sapiens (Human), UniProt P23975); assay: Binding Assay to Human Norepinephrine Transporter (NET); conditions: Table 2, dual compounds; human NET enriched membranes, 5 nM [3H]-Nisoxetin; read-out: Ki(nM) NET Hum
In short: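 hNET-enriched membranes (5 μg) incubated with 5 nM [3H]-nisoxetine in Tris pH 7.4 containing 120 mM NaCl and 5 mM KCl, with compound at five concentrations, 60 min at 4 °C. Non-specific binding with 10 μM desipramine; filtration and scintillation counting.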

Chain of Human α2δ-1 subunit of Cav2.2 calcium channel (P54289 25-1103): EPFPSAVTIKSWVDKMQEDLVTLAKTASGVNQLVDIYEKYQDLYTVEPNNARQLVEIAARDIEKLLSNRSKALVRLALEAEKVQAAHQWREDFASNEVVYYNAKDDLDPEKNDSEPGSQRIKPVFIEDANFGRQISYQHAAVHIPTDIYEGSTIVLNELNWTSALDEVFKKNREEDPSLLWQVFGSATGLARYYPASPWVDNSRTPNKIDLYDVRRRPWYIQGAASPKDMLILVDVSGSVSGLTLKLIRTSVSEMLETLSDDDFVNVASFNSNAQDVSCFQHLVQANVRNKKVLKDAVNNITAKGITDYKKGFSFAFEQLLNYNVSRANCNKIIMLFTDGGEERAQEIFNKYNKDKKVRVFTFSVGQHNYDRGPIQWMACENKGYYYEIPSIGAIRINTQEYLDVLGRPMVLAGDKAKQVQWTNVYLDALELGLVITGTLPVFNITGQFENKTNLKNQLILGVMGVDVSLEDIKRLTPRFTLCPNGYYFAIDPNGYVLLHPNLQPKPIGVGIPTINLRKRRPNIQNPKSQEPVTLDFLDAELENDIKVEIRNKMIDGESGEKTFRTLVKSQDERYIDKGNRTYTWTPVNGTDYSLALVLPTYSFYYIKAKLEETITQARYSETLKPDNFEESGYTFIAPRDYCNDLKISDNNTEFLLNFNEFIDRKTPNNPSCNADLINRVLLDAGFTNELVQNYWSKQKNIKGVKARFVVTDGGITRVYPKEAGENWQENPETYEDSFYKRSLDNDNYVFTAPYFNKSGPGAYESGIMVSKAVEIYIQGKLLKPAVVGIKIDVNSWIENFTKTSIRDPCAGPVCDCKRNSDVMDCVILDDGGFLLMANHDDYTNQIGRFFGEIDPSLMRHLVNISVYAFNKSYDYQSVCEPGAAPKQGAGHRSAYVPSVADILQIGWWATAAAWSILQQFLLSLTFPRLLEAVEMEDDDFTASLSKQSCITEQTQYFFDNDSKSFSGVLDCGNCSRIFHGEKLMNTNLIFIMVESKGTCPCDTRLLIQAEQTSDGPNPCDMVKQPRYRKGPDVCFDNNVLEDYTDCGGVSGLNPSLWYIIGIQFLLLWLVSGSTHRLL
Chain of Human norepinephrine transporter (NET) (P23975 whole entry): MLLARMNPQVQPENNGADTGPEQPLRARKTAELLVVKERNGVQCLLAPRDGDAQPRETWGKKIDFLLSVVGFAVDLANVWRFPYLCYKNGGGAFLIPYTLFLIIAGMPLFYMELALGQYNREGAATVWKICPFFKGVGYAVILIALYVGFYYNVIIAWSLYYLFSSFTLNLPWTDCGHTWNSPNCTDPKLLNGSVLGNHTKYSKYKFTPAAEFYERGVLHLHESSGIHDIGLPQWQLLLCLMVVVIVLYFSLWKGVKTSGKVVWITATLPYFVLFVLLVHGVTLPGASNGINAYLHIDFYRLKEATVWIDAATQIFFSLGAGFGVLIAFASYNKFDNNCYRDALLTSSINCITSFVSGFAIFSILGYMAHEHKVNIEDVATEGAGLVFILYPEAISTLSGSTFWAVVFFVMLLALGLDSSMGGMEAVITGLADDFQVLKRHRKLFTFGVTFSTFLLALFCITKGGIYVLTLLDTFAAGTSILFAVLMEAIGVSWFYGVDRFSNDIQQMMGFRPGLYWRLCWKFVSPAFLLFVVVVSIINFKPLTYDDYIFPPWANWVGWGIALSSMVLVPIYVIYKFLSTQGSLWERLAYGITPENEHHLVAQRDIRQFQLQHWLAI

Compound | Ki ([1]; Table 1) [nM] | Ki ([1]; Table 2, dual compounds) [nM] | Ki [2] [nM]
CNCC[C@H](Oc1ccc(CN2CCN(C)c3ncccc3C2=O)c(F)c1)c1ccccc1F [Example 152, (S)-4-(2-fluoro-4-(1-(2-fluorophenyl)-3-(methylamino)propoxy)benzyl)-1-methyl-1,2,3,4-tetrahydro-5H-pyrido[2,3-e][1,4]diazepin-5-one] | < 100 | < 100 | < 100
CNCCC(Oc1ccc(CN2CCN(C)c3nc(N)ccc3C2=O)c(F)c1)c1cccc(F)c1 (stereo not drawn) [Example 131, 8-Amino-4-(2-fluoro-4-(1-(3-fluorophenyl)-3-(methylamino)propoxy)benzyl)-1-methyl-1,2,3,4-tetrahydro-5H-pyrido[2,3-e][1,4]diazepin-5-one] | < 100 | < 100 | < 100
CNCCC(OCc1cccc(N2CCCN(C)CC2)c1)c1ccccc1 (stereo not drawn) [Example 6, N-methyl-3-((3-(4-methyl-1,4-diazepan-1-yl)benzyl)oxy)-3-phenylpropan-1-amine] | 500 to 3000 | 500 to 3000 | 100 to 500
CNCCC(Oc1cccc(N2CCN(C)c3nc(C)ccc3C2=O)c1)c1ccsc1 (stereo not drawn) [Example 78, 1,8-Dimethyl-4-(3-(3-(methylamino)-1-(thiophen-3-yl)propoxy)phenyl)-1,2.3,4-tetrahydro-5H-pyrido[2,3-e][1,4]diazepin-5-one] | 100 to 500 | 100 to 500 | 100 to 500
CNCCC(OCc1cccc(N2CCNCCC2=O)c1)c1ccccc1 (stereo not drawn) [Example 37, 4-(3-((3-(Methylamino)-1-phenylpropoxy)methyl)phenyl)-1,4-diazepan-5-one] | 500 to 3000 | 500 to 3000 | 100 to 500
CNCC[C@H](Oc1ccc(CN2CCN(C)c3ncccc3C2=O)c(F)c1)c1ccccc1 [Example 116, (S)-4-(2-fluoro-4-(3-(methylamino)-1-phenylpropoxy)benzyl)-1-methyl-1,2,3,4-tetrahydro-5H-pyrido[2,3-e][1,4]diazepin-5-one] | < 100 | < 100 | < 100
CNCCC(OCc1cccc(N2CCN(C)c3ccccc3C2)c1)c1ccccc1 (stereo not drawn) [Example 7, N-methyl-3-((3-(1-methyl-1,2,3,5-tetrahydro-4H-benzo[e][1,4]diazepin-4-yl)benzyl)oxy)-3-phenylpropan-1-amine] | 500 to 3000 | 500 to 3000 | 500 to 1000
CNCC[C@H](Oc1ccc(CN2CCN(C)c3cnccc3C2=O)cc1)c1cccs1 [Example 96, (S)-1-methyl-4-(4-(3-(methylamino)-1-(thiophen-2-yl)propoxy)benzyl)-1,2,3,4-tetrahydro-5H-pyrido[3,4-e][1,4]diazepin-5-one] | 100 to 500 | 100 to 500 | 100 to 500
